Data on two molecules can be found in patent publication US20100063041A1, “NOVEL PHENYLPROPIONIC ACID DERIVATIVES AS PEROXISOME PROLIFERATOR-ACTIVATED GAMMA RECEPTOR MODULATORS, METHOD OF THE SAME, AND PHARMACEUTICAL COMPOSITION COMPRISING THE SAME” (priority 2007, published 2010).

Molecules are shown by their SMILES.

The subject of one test is Trap220. Conditions: cited from earlier work.
The test system of test [1] is diabetic male mice (db/db mice). Kind of test: blood glucose-lowering effects in mice with hyperglycemic diabetes. The test is classed as in vivo. The following applies: for % Inhibition vs. Control / Blood glucose D5: oral once a day for 5 days. As for the experimental part:
Effects of PPAR compounds on a blood glucose level were evaluated in 7-week-old diabetic male mice (db/db mice). Blood was collected from caudal veins of the diabetic animals to which the drug was administered once a day for 5 consecutive days, and the blood glucose level was then measured with a blood glucose test meter (ACCU CHEK Active®).

For another test, the target named is T1, PPAR-γ and Trap220 (Homo sapiens, UniProt P37231).
T1 construct: expressed in transfected cells; host or cells: CHO-K1 (CCL-61, ATCC)
T1 sequence (P37231 238-503 limits assumed): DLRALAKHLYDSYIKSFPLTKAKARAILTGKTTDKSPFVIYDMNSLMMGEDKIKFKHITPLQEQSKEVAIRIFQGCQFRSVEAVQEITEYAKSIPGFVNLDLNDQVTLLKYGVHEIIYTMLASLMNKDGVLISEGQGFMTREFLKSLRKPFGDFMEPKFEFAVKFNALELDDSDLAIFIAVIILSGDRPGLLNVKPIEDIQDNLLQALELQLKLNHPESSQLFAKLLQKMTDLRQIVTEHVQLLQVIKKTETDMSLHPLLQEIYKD
Put plainly: binding capacity with Trap220 (mammalian two-hybrid assay) in CHO-K1 cells. Conditions: compared to the positive control drug rosiglitazone, FIG. 1. It counts as cell-based. As for the experimental part:
Following induction of transient intracellular expression of PPAR-γ and Trap220, the binding capacity of the inventive compounds to a cofactor Trap220 after activation of PPAR-γ by the action of the inventive compounds was evaluated (mammalian two-hybrid assay).
For this purpose, a […] ovary cell line CHO-K1 (CCL-61, ATCC) was used as a test cell line. DNA constructs used in this assay were an expression vector pVP16 (Clontech) constructed to express a fusion of a human PPAR-γ2 ligand-binding domain with an activation domain of the […], and an expression vector pM (Clontech) constructed to express a fusion of human Trap220 with the GAL4 DNA-binding domain. Rosiglitazone maleate (Alcon Biosciences Private Limited), which is clinically used as a PPAR-γ agonist, was employed as a control drug.
The CHO-K1 cells were transiently transfected with two DNA constructs expressing the chimeric receptors and DNA constructs comprising 5 copies of the GAL4 DNA-binding domain and capable of inducing expression of firefly luciferase or Renilla luciferase using a Lipofectamine Plus reagent (Invitrogen, USA). Subsequent processes were carried out in the same manner as in the transactivation assay. The experimental results were expressed as an increase of the responsiveness vs. the negative control group with no addition of the drug.

For `O=S(=O)(Nc1cc(Cl)c(Oc2cnc3ccccc3c2)c(Cl)c1)c1ccc(Cl)cc1Cl` [INT-131, reference compound], the “binding capacity for Trap220” value in the test on Trap220 is reported as “attenuated binding capacity”. Also, the “% Inhibition vs. Control” value in test [1] (1 mg/kg) was determined as 8%; in test [1] (3 mg/kg) it was 25%; in test [1] (10 mg/kg), 38%. In addition, the “Blood glucose D5” value in test [1] (1 mg/kg) is listed as 350 ± 31 mg/dL; in test [1] (3 mg/kg) it was 286 ± 34 mg/dL; in test [1] (10 mg/kg), 237 ± 19 mg/dL. Also, the “Blood glucose D0” value is reported as 381 ± 30 mg/dL in test [1] (oral, 1 mg/kg); 382 ± 31 mg/dL in test [1] (oral, 3 mg/kg); 382 ± 28 mg/dL in test [1] (oral, 10 mg/kg). For the same molecule, the ED30 in test [1] (oral, blood glucose) is on record as 4 mg/kg.
As for `CCO[C@@H](Cc1ccc(OCc2sc(-c3ccc(-c4cc(C)no4)cc3)cc2C)cc1)C(=O)[O-].[Na+]` [Example 43, sodium (S)-2-ethoxy-3-(4-((3-methyl-5-(4-(3-methylisoxazol-5-yl)phenyl)thiophen-2-yl)methoxy)phenyl)propanoate], the “responsiveness (binding capacity with Trap220)” value at PPAR-γ and Trap220 is reported as “reduced responsiveness”.
